These compounds were tested against T1, Ba/F3 cell EGFR Exon20 ins NPH (Homo sapiens, UniProt P00533, INS773NPH) (assay: Ba/F3 cell proliferation suppression, EGFR Exon20 ins NPH). Conditions: GI50 class; Ba/F3 cell line with NPH inserted at Exon20 of EGFR; 72 hours.
T1 construct: expressed in transfected cells; host or cells: Ba/F3
Format: cell-based
Outline: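 Cells (3000–5000/well) plated 24 h before compound, 12-point 3-fold dilutions at 0.3 nM to 50 um final; Ba/F3 lines grown with 5 ng/ml IL-3. Viability by CellTiter-Glo luminescence after 72 h, growth ratio vs control, GI50 from curves; triplicate.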

Row | SMILES | Ba/F3 (NPH) Activity
1 | C=CC(=O)Nc1cc(Nc2cc(N3OCC[C@@H]3c3cccc(Cl)c3F)ncn2)c(OC)cc1N1CCC(N2CCN(C3CCCC3)CC2)CC1 [Example 101, N-(5-((6-((R)-3-(3-chloro-2-fluorophenyl)isoxazolidine-2-yl)pyrimidine-4-yl)amino)-2-(4-(4-cyclopentylpiperazine-1-yl)piperidine-1-yl)-4-methoxyphenyl) acrylamide] | A (GI50 < 50 nM)
2 | C=CC(=O)Nc1cc(Nc2cc(N3OCC[C@@H]3c3ccc(F)cc3F)ncn2)c(OC)cc1-n1cncc1C [compound 377, N-(5-((6-((R)-3-(2,4-difluorophenyl)isoxazolidine-2-yl)pyrimidine-4-yl)amino)-4-methoxy-2-(5-methyl-1H-imidazole-1-yl)phenyl)acrylamide] | B (50 nM ≤ GI50 < 500 nM)
3 | C=CC(=O)Nc1cc(Nc2cc(N3OCC[C@@H]3c3ccc(F)c(Cl)c3F)ncn2)c(OC)cc1N1CCN(C)CC1 [compound 604, N-(5-((6-((R)-3-(3-chloro-2,4-difluorophenyl)isoxazolidine-2-yl)pyrimidine-4-yl)amino)-4-methoxy-2-(4-methylpiperazine-1-yl)phenyl)acrylamide] | A (GI50 < 50 nM)
4 | C=CC(=O)Nc1cc(Nc2cc(N3OCC[C@@H]3c3cccc(Cl)c3C)ncn2)c(OC)cc1N1CCC(N2CCN(C3CCC3)CC2)CC1 [Example 188, N-(5-((6-((R)-3-(3-chloro-2-methylphenyl)isoxazolidine-2-yl)pyrimidine-4-yl)amino)-2-(4-(4-cyclobutylpiperazine-1-yl)piperidine-1-yl)-4-methoxyphenyl) acrylamide] | A (GI50 < 50 nM)
5 | C=CC(=O)Nc1cc(Nc2cc(N3OCC[C@@H]3c3cc(F)cc(Cl)c3)ncn2)c(OC)cc1N1CCC(N2CCN(C3CC3)[C@H](C)C2)CC1 [Example 158, N-(5-((6-((R)-3-(3-chloro-5-fluorophenyl)isoxazolidine-2-yl)pyrimidine-4-yl)amino)-2-(4-((R)-4-cyclopropyl-3-methylpiperazine-1-yl)piperidine-1-yl)-4-methoxyphenyl) acrylamide] | A (GI50 < 50 nM)
6 | C=CC(=O)Nc1cc(Nc2cc(N3OCC[C@@H]3c3c(F)ccc(F)c3F)ncn2)c(OC)cc1N1CCC(N2CCO[C@@H](C)C2)CC1 [compound 645, N-(4-methoxy-2-(4-((S)-2-methylmorpholino)piperidine-1-yl)-5-((6-((R)-3-(2,3,6-trifluorophenyl)isoxazolidine-2-yl)pyrimidine-4-yl)amino)phenyl)acrylamide] | A (GI50 < 50 nM)
7 | C=CC(=O)Nc1cc(Nc2cc(N3OCC[C@@H]3c3ccc(C)nc3)ncn2)c(OC)cc1N1CC[C@H](N(C)C)C1 [Example 222, N-(2-((S)-3-(dimethylamino)pyrolidine-1-yl)-4-methoxy-5-((6-((R)-3-(6-methylpyridine-3-yl)isoxazolidine-2-yl)pyrimidine-4-yl)amino)phenyl)acrylamide] | B (50 nM ≤ GI50 < 500 nM)
8 | C=CCN1CCN(C2CCN(c3cc(OC)c(Nc4cc(N5OCC[C@@H]5c5ccc(F)c(F)c5)ncn4)cc3NC(=O)C=C)CC2)CC1 [Example 212, N-(2-(4-(4-allylpiperazine-1-yl)piperidine-1-yl)-5-((6-((R)-3-(3,4-difluorophenyl)isoxazolidine-2-yl)pyrimidine-4-yl)amino)-4-methoxyphenyl) acrylamide] | A (GI50 < 50 nM)
9 | C#Cc1cccc([C@H]2CCON2c2cc(Nc3cc(NC(=O)C=C)c(N4CCC(N5C[C@@H](C)O[C@@H](C)C5)CC4)cc3OC)ncn2)c1 [compound 651, N-(2-(4-((2S,6R)-2,6-dimethylmorpholino)piperidine-1-yl)-5-((6-((R)-3-(3-ethynylphenyl)isoxazolidine-2-yl)pyrimidine-4-yl)amino)-4-methoxyphenyl) acrylamide] | A (GI50 < 50 nM)
10 | C=CC(=O)Nc1cc(Nc2cc(N3OCC[C@@H]3c3cccc(Cl)c3C)ncn2)c(OC)cc1N1CCC(N2CCO[C@@H](C)C2)CC1 [compound 529, N-(5-((6-((R)-3-(3-chloro-2-methylphenyl)isoxazolidine-2-yl)pyrimidine-4-yl)amino)-4-methoxy-2-(4-((S)-2-methylmorpholino)piperidine-1-yl)phenyl) acrylamide] | A (GI50 < 50 nM)
11 | C=CC(=O)Nc1cc(Nc2cc(N3OCC[C@@H]3c3ccc(F)cc3F)ncn2)c(OC)cc1N1CCC(N2CCN(CCN(C)C)CC2)CC1 [compound 431, N-(5-((6-((R)-3-(2,4-difluorophenyl)isoxazolidine-2-yl)pyrimidine-4-yl)amino)-2-(4-(4-(2-(dimethylamino)ethyl)piperazine-1-yl)piperidine-1-yl)-4-methoxyphenyl) acrylamide] | A (GI50 < 50 nM)
12 | C=CC(=O)Nc1cc(Nc2cc(N3OCC[C@@H]3c3cccc(Cl)c3)ncn2)c(OC)cc1N1CCC(N2CC[C@H](N(C)C)C2)CC1 [compound 508, N-(5-((6-((R)-3-(3-chlorophenyl)isoxazolidine-2-yl)pyrimidine-4-yl)amino)-2-(4-((S)-3-(dimethylamino)pyrolidine-1-yl)piperidine-1-yl)-4-methoxyphenyl) acrylamide] | A (GI50 < 50 nM)
13 | C=CC(=O)Nc1cc(Nc2cc(N3OCC[C@@H]3c3cccc4ccccc34)ncn2)c(OC)cc1N1CCC(N2CCN(C3CC3)CC2)CC1 [Example 146, N-(2-(4-(4-cyclopropylpiperazine-1-yl)piperidine-1-yl)-4-methoxy-5-((6-((R)-3-(naphthalene-1-yl)isoxazolidine-2-yl)pyrimidine-4-yl)amino)phenyl)acrylamide] | B (50 nM ≤ GI50 < 500 nM)
14 | C=CC(=O)Nc1cc(Nc2cc(N3OCC[C@@H]3c3cccc(Cl)c3F)ncn2)c(OC)cc1N1CCC(N2CCN(C(C)C)CC2)CC1 [compound 707, N-(5-((6-((R)-3-(3-chloro-2-fluorophenyl)isoxazolidine-2-yl)pyrimidine-4-yl)amino)-2-(4-(4-isopropylpiperazine-1-yl)piperidine-1-yl)-4-methoxyphenyl) acrylamide] | A (GI50 < 50 nM)

Second part, the compound after the results:

Row | Ba/F3 (NPH) Activity | SMILES
15 | A (GI50 < 50 nM) | C=CC(=O)Nc1cc(Nc2cc(N3OCC[C@@H]3c3cccc(C)c3F)ncn2)c(OC)cc1N1CCC(N2CCOCC2)CC1 [compound 856, N-(5-((6-((R)-3-(2-fluoro-3-methylphenyl)isoxazolidine-2-yl)pyrimidine-4-yl)amino)-4-methoxy-2-(4-morpholinopiperidine-1-yl)phenyl)acrylamide]
16 | B (50 nM ≤ GI50 < 500 nM) | C=CC(=O)Nc1cc(Nc2cc(N3OCC[C@@H]3c3cc(F)cc(F)c3)ncn2)c(OC)cc1N1CCC(N2CCN(C)CC2=O)CC1 [compound 722, N-(5-((6-((R)-3-(3,5-difluorophenyl)isoxazolidine-2-yl)pyrimidine-4-yl)amino)-4-methoxy-2-(4-(4-methyl-2-oxopiperazine-1-yl)piperidine-1-yl)phenyl)acrylamide]
17 | B (50 nM ≤ GI50 < 500 nM) | C=CC(=O)Nc1cc(Nc2cc(N3OCC[C@@H]3Cc3cccc(N(C)C)c3)ncn2)c(OC)cc1N1CCC(N2C[C@H]3C[C@@H]2CO3)CC1 [compound 1047, N-(2-(4-((1R,4R)-2-oxa-5-azabicyclo [2.2.1]heptane-5-yl)piperidine-1-yl)-5-((6-((S)-3-(3-(dimethylamino)benzyl)isoxazolidine-2-yl)pyrimidine-4-yl)amino)-4-methoxyphenyl) acrylamide]
18 | A (GI50 < 50 nM) | C=CC(=O)Nc1cc(Nc2cc(N3OCC[C@@H]3Cc3cccc(F)c3C)ncn2)c(OC)cc1N1CCC(N2CCN(C3CC3)[C@@H](C)C2)CC1 [compound 1005, N-(2-(4-((S)-4-cyclopropyl-3-methylpiperazine-1-yl)piperidine-1-yl)-5-((6-((S)-3-(3-fluoro-2-methylbenzyl)isoxazolidine-2-yl)pyrimidine-4-yl)amino)-4-methoxyphenyl) acrylamide]
19 | A (GI50 < 50 nM) | C=CC(=O)Nc1cc(Nc2cc(N3OCC[C@@H]3c3cccc(F)c3)ncn2)c(OC)cc1N1CCC(N2CCN(C(C)=O)CC2)CC1 [compound 741, N-(2-(4-(4-acetylpiperazine-1-yl)piperidine-1-yl)-5-((6-((R)-3-(3-fluorophenyl)isoxazolidine-2-yl)pyrimidine-4-yl)amino)-4-methoxyphenyl) acrylamide]
20 | A (GI50 < 50 nM) | C=CC(=O)Nc1cc(Nc2cc(N3OCC[C@@H]3c3ccc(F)cc3)ncn2)c(OC)cc1N1CCC(N2CCN(C(C)=O)CC2)CC1 [compound 809, N-(2-(4-(4-acetylpiperazine-1-yl)piperidine-1-yl)-5-((6-((R)-3-(4-fluorophenyl)isoxazolidine-2-yl)pyrimidine-4-yl)amino)-4-methoxyphenyl) acrylamide]
21 | A (GI50 < 50 nM) | C=CC(=O)Nc1cc(Nc2cc(N3OCC[C@@H]3c3ccc(Cl)c(Cl)c3F)ncn2)c(OC)cc1N1CCC(N2CCN(C(C)C)CC2)CC1 [compound 804, N-(5-((6-((R)-3-(3,4-dichloro-2-fluorophenyl)isoxazolidine-2-yl)pyrimidine-4-yl)amino)-2-(4-(4-isopropylpiperazine-1-yl)piperidine-1-yl)-4-methoxyphenyl) acrylamide]
22 | A (GI50 < 50 nM) | C=CC(=O)Nc1cc(Nc2cc(N3OCC[C@@H]3c3ccc(F)cc3)ncn2)c(OC)cc1N1CCC(N2CC[C@@H](N(C)C)C2)CC1 [compound 810, N-(2-(4-((R)-3-(dimethylamino)pyrolidine-1-yl)piperidine-1-yl)-5-((6-((R)-3-(4-fluorophenyl)isoxazolidine-2-yl)pyrimidine-4-yl)amino)-4-methoxyphenyl) acrylamide]
23 | A (GI50 < 50 nM) | C=CC(=O)Nc1cc(Nc2cc(N3OCC[C@@H]3c3cccc(C)c3F)ncn2)c(OC)cc1N(C)CCN(C)C [compound 846, N-(2-((2-(dimethylamino)ethyl) (methyl)amino)-5-((6-((R)-3-(2-fluoro-3-methylphenyl)isoxazolidine-2-yl)pyrimidine-4-yl)amino)-4-methoxyphenyl) acrylamide]

— patent US12157730B2, “Heteroaryl derivative, method for producing same, and pharmaceutical composition comprising same as effective component” (VORONOI INC., priority 2019, dated 2024)
